Key:
Assay type in all cases: in vivo, human
[1] = Body weight, Phase 2a study
Description: Body weight was measured during the screening period, at the start of the run—in period (Day −28), and prior to breakfast on Day 1 (predose) and Day 29. The subject should have taken off their shoes and remove bulky clothing. Calibrated scales were used.
The change and percent change in body weight from baseline (Day 1) to Day 29 (kg) were determined. The proportion of subjects achieving>5% body weight loss from baseline (Day 1) to Day 29 was also determined.

[2] = test system: overweight/obese subjects with Type 2 Diabetes Mellitus (T2DM); test: Mixed-meal tolerance test (MMTT) plasma glucose AUC0-4 h, Phase 2a study
Description: (§1) Subjects were admitted to the unit on Day −2 and on Day 27. On Day −1 and on Day 28, following a minimum 10 hour fast, a blood sample for glucose metabolism panel (glucose, insulin, C-peptide, glucagon, and active GLP-1) was taken immediately prior to the subject drinking a standardized mixed meal (t=“0 minutes”). The subject then consumed a can of Ensure Plus, which is a nutritional supplement containing the components of fat, carbohydrate, and protein that make up a standard mixed-meal tolerance test (MMTT). After the meal, timed, serial blood samples were obtained for measurement of glucose and parameters related to glucose metabolism (with no additional food intake during this time). The MMTT was performed on Day-1 and Day 28.
(§2) Blood samples for the glucose metabolism panel were drawn at t=“0 minutes” (before meal) and at 15, 30, 45, 60, 90, 120, 180, and 240 minutes (±5 minutes) after consumption of the standardized meal. Additional sampling for glucagon, insulin, C-peptide, and glucose was taken at 6, 8, 12, and 24 hours (±30 minutes) post-administration (t=“0 minutes”) of the standardized meal on Day −1 and 28.
(§3) The change and percent change from baseline (Day-1) to the end of the 28 days of treatment (Day 28) in glucose AUC0-4 h were determined as measured by the MMTT. In addition, the change from baseline (Day −1) to Day 28 in active GLP-1, glucagon, insulin, and C-peptide AUC0-4 h were also measured by MMTT.

[3] = test system: overweight/obese subjects with Type 2 Diabetes Mellitus (T2DM); test: Fasting plasma glucose (FPG), Phase 2a study
Description: The change in fasting plasma glucose (FPG) from baseline to Day 28 was assessed.

[4] = test system: overweight/obese subjects with Type 2 Diabetes Mellitus (T2DM); test: Pancreatic and incretin hormone profiles during the MMTT
Description: as §1, §2, §3
The changes in insulin and C-peptide AUC004h from baseline to Day 28 were assessed. At baseline, the mean insulin AUC0-4 h was higher in the cotadutide group compared with the placebo group (91.768 vs 78.472 hr·mU/L, respectively). There was no meaningful difference from baseline in LS mean insulin AUC0-4 h at Day 28 between the cotadutide and placebo groups (−0.08 and 2.78 hr·mU/L, respectively; LS mean difference: −2.86 hr·mU/L; p=0.7760). At baseline, the mean C-peptide AUC0-4 h was similar in the cotadutide and placebo groups (11.278 vs 10.605 hr. μg/L, respectively). There was no meaningful difference from baseline in LS mean C-peptide AUC0-4 h at Day 28 between the cotadutide and placebo groups (0.32 and −0.29 hr. μg/L, respectively (LS mean difference: […]; p=0.4345).

[5] = Immunogenicity: anti-drug antibody (ADA) response to cotadutide
Description: Blood samples were collected to evaluate anti-drug antibody (ADA) response to cotadutide. Serum samples were evaluated for ADA using a validated immunoassay. Adverse events (AEs) and serious adverse events (SAEs) were collected from the time of informed consent throughout the treatment period and including the follow-up period. AEs and SAEs were graded by severity and relationship to investigational product and SAEs were assessed for relationship to protocol procedures.
Development of ADA and titres (in any subjects testing positive) were assessed to evaluate the immunogenicity profile of cotadutide titrated up to a dose of 300 μg. No subjects in the placebo group and 3 subjects (12.0%) in the cotadutide group tested positive for ADA at baseline. None of these subjects who tested positive at baseline were ADA positive post-baseline. One subject (4.2%) in the placebo group and 3 subjects (12.5%) in the cotadutide group were ADA positive post-baseline.

[6] = test system: overweight/obese subjects with Type 2 Diabetes Mellitus (T2DM); test: Hemoglobin A1c (HbA1c), Phase 2a study
Description: The change in hemoglobin A1c (glycated hemoglobin; HbA1c) from baseline to Day 28 was assessed.

[7] = test system: overweight/obese subjects with Type 2 Diabetes Mellitus (T2DM); test: 24-hour glucose urine excretion; settings: Day 28
Description: Changes in 24-hour glucose urine excretion from baseline to Day 28 were assessed. At baseline, subjects in the cotadutide group had less urine glucose excretion compared with subjects in the placebo group (4552.85 vs 9107.06 mg/24 hr, respectively).

[8] = test system: overweight/obese subjects with Type 2 Diabetes Mellitus (T2DM); test: Fasting free fatty acid (FFA) levels; settings: Day 28 (300 μg); vs placebo
Description: The changes in fasting free fatty acid (FFA) from baseline to the end of each dose level were assessed. Fasting FFA changes from baseline to Day 7 (100 μg), Day 14 (200 μg), or Day 28 (300 μg) were similar between treatment groups (LS mean difference at Day 28: −0.04 mEq/L; p=0.5322).

[9] = Day 28, ITT, metformin and dapagliflozin background
[10] = baseline to Day 28, vs placebo, ANCOVA

SMILES: CCCCCCCCCCCCCCCC(=O)N[C@@H](CCC(=O)NCCCC[C@H](NC(=O)[C@H](CC(=O)O)NC(=O)[C@H](CO)NC(=O)[C@@H](NC(=O)[C@H](Cc1ccccc1)NC(=O)[C@@H](NC(=O)CNC(=O)[C@H](CCC(N)=O)NC(=O)[C@H](CO)NC(=O)[C@@H](N)Cc1c[nH]cn1)[C@@H](C)O)[C@@H](C)O)C(=O)N[C@@H](CO)C(=O)N[C@@H](CCC(=O)O)C(=O)N[C@@H](Cc1ccc(O)cc1)C(=O)N[C@@H](CC(C)C)C(=O)N[C@@H](CC(=O)O)C(=O)N[C@@H](CO)C(=O)N[C@@H](CCC(=O)O)C(=O)N[C@@H](CCCNC(=N)N)C(=O)N[C@@H](C)C(=O)N[C@@H](CCCNC(=N)N)C(=O)N[C@@H](CC(=O)O)C(=O)N[C@@H](Cc1ccccc1)C(=O)N[C@H](C(=O)N[C@@H](C)C(=O)N[C@@H](Cc1c[nH]c2ccccc12)C(=O)N[C@@H](CC(C)C)C(=O)N[C@@H](CCC(=O)O)C(=O)N[C@@H](C)C(=O)NCC(=O)NCC(=O)O)C(C)C)C(=O)O [Cotadutide]
- Body weight, Day 29 change from baseline, mean ([1]; baseline (Day 1) to Day 29): -3.06 kg
- Body weight, Day 29 change from baseline, median ([1]; baseline (Day 1) to Day 29): -2.85 kg
- Body weight, Day 29 percent change from baseline, mean ([1]; baseline (Day 1) to Day 29): −3.30%
- Body weight, Day 29 percent change from baseline, median ([1]; baseline (Day 1) to Day 29): −3.14%
- Proportion of subjects achieving >5% body weight loss ([1]; baseline to Day 29, 3 subjects): 12.5%
- Body weight, Day 29 change from baseline, LS mean ([1]; baseline to Day 29, ANCOVA): -3.16 kg
- Body weight, Day 29 percent change from baseline, LS mean ([1]; baseline to Day 29, ANCOVA): −3.33%
- Body weight, Day 29 change from baseline, LS mean difference ([1]; baseline to Day 29, vs placebo): -2.13 kg
- Body weight, Day 29 percent change from baseline, LS mean difference ([1]; baseline to Day 29, vs placebo): −2.26%
- Plasma glucose AUC0-4 h after MMTT, Day 28, mean [2, 9]: 523.72 mg·h/dL
- Plasma glucose AUC0-4 h after MMTT, Day 28, median [2, 9]: 481.57 mg·h/dL
- Plasma glucose AUC0-4 h after MMTT, change from baseline, LS mean ([2]; baseline to Day 28, ANCOVA): -154.37 mg·h/dL
- Plasma glucose AUC0-4 h after MMTT, percent change from baseline, LS mean ([2]; baseline to Day 28, ANCOVA): −22.30%
- Plasma glucose AUC0-4 h after MMTT, change from baseline, mean ([2]; baseline to Day 28, ITT): -151.29 mg·h/dL
- Plasma glucose AUC0-4 h after MMTT, change from baseline, median ([2]; baseline to Day 28, ITT): -148.29 mg·h/dL
- Plasma glucose AUC0-4 h after MMTT, percent change from baseline, mean ([2]; baseline to Day 28, ITT): −22.03%
- Plasma glucose AUC0-4 h after MMTT, percent change from baseline, median ([2]; baseline to Day 28, ITT): −25.55%
- Plasma glucose AUC0-4 h after MMTT, change from baseline, LS mean difference [2, 10]: -143.09 mg·h/dL
- Plasma glucose AUC0-4 h after MMTT, percent change from baseline, LS mean difference [2, 10]: −22.17%
- Fasting plasma glucose, Day 28 (LOCF), mean ([3]; Day 28 (LOCF), ITT): 115.33 mg/dL
- Fasting plasma glucose, Day 28 (LOCF), median ([3]; Day 28 (LOCF), ITT): 106.32 mg/dL
- Fasting plasma glucose, change from baseline (LOCF), mean ([3]; baseline to Day 28): -34.24 mg/dL
- Fasting plasma glucose, change from baseline (LOCF), median ([3]; baseline to Day 28): -43.25 mg/dL
- Fasting plasma glucose, change from baseline (LOCF), LS mean ([3]; baseline to Day 28, ANCOVA): -34.15 mg/dL
- Fasting plasma glucose, change from baseline (LOCF), LS mean difference ([3]; baseline to Day 28, vs placebo): -37.73 mg/dL
- C-peptide AUC0-4 h, change from baseline, LS mean ([4]; Day 28): 0.32 µg·h/L
- GLP-1 (active form) AUC0-4 h, change from baseline, LS mean ([4]; Day 28): -131.67 ng·h/L
- Glucagon AUC0-4 h, change from baseline, LS mean ([4]; Day 28): -12.52 ng·h/L
- Insulin AUC0-4 h, change from baseline, LS mean ([4]; Day 28): −0.08 hr·mU/L
- GLP-1 (active form) AUC0-4 h, change from baseline, LS mean difference ([4]; Day 28, vs placebo): -0.73 ng·h/L
- Glucagon AUC0-4 h, change from baseline, LS mean difference ([4]; Day 28, vs placebo): 11.3 ng·h/L
- Insulin AUC0-4 h, change from baseline, LS mean difference ([4]; Day 28, vs placebo): −2.86 hr·mU/L
- Subjects ADA positive post-baseline ([5]; 3 subjects): 12.5%
- Subjects ADA positive at Day 29 ([5]; Day 29, 1 subject): 4.2%
- Subjects ADA positive at the End of Study ([5]; End of Study, 2 subjects): 8.3%
- Treatment boosted ADA (baseline titre boosted 4-fold or higher) ([5]; during drug administration): No subjects had a treatment boosted ADA
- Hemoglobin A1c, Day 28, mean ([6]; Day 28, ITT): 6.75%
- Hemoglobin A1c, Day 28, median ([6]; Day 28, ITT): 6.65%
- Hemoglobin A1c, change from baseline, mean ([6]; baseline to Day 28): −1.04%
- Hemoglobin A1c, change from baseline, median ([6]; baseline to Day 28): −1.10%
- Hemoglobin A1c, change from baseline, LS mean ([6]; baseline to Day 28, ANCOVA): −1.03%
- Hemoglobin A1c, change from baseline, LS mean difference ([6]; baseline to Day 28, vs placebo): −0.58%
- 24-hour glucose urine excretion, change from baseline, LS mean [7]: −643.46 mg/24h
- 24-hour glucose urine excretion, change from baseline, LS mean difference ([7]; vs placebo): 921.26 mg/24h
- Fasting FFA change from baseline, LS mean difference [8]: −0.04 mEq/L

— patent US20230012936A1, “COMBINATION THERAPY USING GLUCAGON AND GLP-1 CO-AGONISTS FOR THE TREATMENT OF OBESITY” (MEDIMMUNE, LLC, priority 2019, published 2023)
